Test results reported in publication PMC4718952, “A simple nonradioactive method for the determination of the binding affinities of antibodies induced by hapten bioconjugates for drugs of abuse” (Analytical and Bioanalytical Chemistry, 2015).

Columns and labels:
[1] = in humans, Fig. 1a; cited from earlier work
[2] = Stability of heroin and its metabolites in dilute mouse sera; conditions: 24 h
[3] = Stability of heroin and its metabolites in DPBS without sera; type: physicochemical
[4] = test system: plasma proteins; experiment: Binding of D3-tracers to plasma proteins in dilute week 0 (preimmunized) sera by ED; type: in vitro ADME, mouse; conditions: ≥1:400 dilution of week 0 (preimmunized) sera
Protocol: Week 0 and week 9 sera were considered as negative and anti-hapten sera, respectively. Anti-hapten sera solutions were prepared by diluting the sera in DPBS (1:400, 1:800, or 1:600). Dialysis buffer was prepared by diluting the corresponding negative sera in DPBS (1:400, 1:800, or 1:600). Competitive inhibitors with different initial concentrations were prepared in the dialysis buffer. For the test samples, anti-hapten sera/D3-tracer was run against the negative sera/inhibitors at the same sera dilution. […] For negative controls, negative sera/D3-tracer was run against the negative sera at the same sera dilution.

[5] = test system: plasma proteins; conditions: neat plasma/sera; cited from earlier work

In the case of 6-acetylmorphine [6-AM], the t1/2 [1] is given as 22 to 26 min, the “hydrolysis of 6-AM in dilute sera” value ([2]; normal mouse sera, ≥1:200 dilutions, 4 °C) is given as “not observed” and the “degradation in the absence of sera” value ([3]; DPBS pH 7.4, 4 °C) is given as “No degradation”.
For `[2H]C([2H])([2H])N1CCC23c4c5ccc(O)c4OC2C(OC(C)=O)C=CC3C1C5` (stereo not shown) [D3-6-AM], the “binding to the plasma proteins” value [4] was roughly 0%.
For `[2H]C([2H])([2H])N1CCC23c4c5ccc(O)c4OC2C(O)C=CC3C1C5` (stereo not shown) [D3-morphine], the “binding to the plasma proteins” value [4] was roughly 0%.
For `CC(=O)Oc1ccc2c3c1O[C@H]1[C@@H](OC(C)=O)C=C[C@H]4[C@@H](C2)N(C)CC[C@@]341` [heroin], the plasma binding [5] is given as roughly 35%, the t1/2 [1] is given as 3 to 4 min and the “amount of intact heroin” value ([2]; 1:400 sera dilution with iso-OMPA and BNPP) is given as no less than 80%. For the same compound, the “hydrolysis of heroin in dilute sera” value ([2]; normal mouse sera, all dilutions (1:25-1:400), 4 °C) was “extensive hydrolysis”, the partial heroin hydrolysis ([3]; absence of sera, DPBS pH 7.4, 4 °C) was roughly 20% and the “% heroin remained intact” value ([3]; after 24 h in DPBS (− Sera), pH 7.4, 4 °C) was 79.9 ± 2.71%.
With `CN1CC[C@]23c4c5ccc(O)c4O[C@H]2[C@@H](O)C=C[C@H]3[C@H]1C5` [morphine] the “degradation of morphine in dilute sera” value ([2]; normal mouse sera, ≥1:100 dilutions, 4 °C) was “not observed” and the “degradation in the absence of sera” value ([3]; DPBS pH 7.4, 4 °C) was “No degradation”.
